Reference: PMC7048748, “Anxiolytic Drug FGIN-1-27 Ameliorates Autoimmunity by Metabolic Reprogramming of Pathogenic Th17 Cells” (Scientific Reports, 2020)

Tested on: Th17 cells
Assay: Lipidomics of Th17 cells
Assay type: cell-based, mouse
Design: key to nCE(16:0) / nCE(18:2) / nDCER(22:0) / nDCER[FA14:0] / nFFA(12:0) / nFFA(14:1) / nFFA(18:4) / nCE(22:0) / nCE(22:6) / nCE(24:1) / nCE[FA14:1] / nCE(12:0) / nCE[FA16:0] / nCE[FA17:0] / nCE[FA18:2] / nCE[FA22:6]: mole percent of each fatty acid within its lipid class; key to nDCER[FA18:1]: mole percent of fatty acid within lipid class
Procedure: Specific cholesterol precursors like desmosterol and oxysterols, such as 7β, 27-dihydroxycholesterol (7β, 27-OHC), have been identified as ligands for RORγt[21],[22] and shown to modulate Th17 differentiation. […] Next, we extended our studies to lipid metabolites and profiled the lipidome of Th17 cells treated with DMSO or FGIN-1-27.
(a) Quantitation of cholesterol esters, triacylglycerols (TAGs), phosphatidylethanolamine (PE) and phosphatidylcholine (PC) in Th17 cells 72 hours after treatment with FGIN-1-27. The error bars represent SD. (b) Heat map showing fatty acid composition (mole percent) for different lipid classes after treatment with FGIN-1-27. (c) Pie charts showing proportions of different fatty acid classes namely PUFAs, MUFAs, ODD and SFAs within the cholesterol esters. (d) Transcript analysis for CD5L 72 hours post treatment with FGIN-1-27. The error bars represent SD.
Th17 cells were differentiated from naïve purified CD4 T cells and treated with either FGIN-1-27 (10 µM) or DMSO during polarization. 10 million cells/treatment were harvested and snap frozen. […] The extracts were concentrated under nitrogen and reconstituted in 0.25 mL of dichloromethane:methanol (50:50) containing 10 mM ammonium acetate. The extracts were placed in vials for infusion-MS analyses, performed on a SelexION equipped Sciex 5500 QTRAP using both positive and negative mode electrospray. Each sample was subjected to 2 analyses, with IMS-MS conditions optimized for lipid classes monitored in each analysis. The 5500 QTRAP was operated in MRM mode to monitor the transitions for over 1,100 lipids from up to 14 lipid classes. Individual lipid species were quantified based on the ratio of signal intensity for target compounds to the signal intensity for an assigned internal standard of known concentration. Lipid class concentrations were calculated from the sum of all molecular species within a class, and fatty acid compositions were determined by calculating the proportion of individual fatty acids within each class.

CCCCCCN(CCCCCC)C(=O)Cc1c(-c2ccc(F)cc2)[nH]c2ccccc12 [FGIN-1-27, N, N-di-n-hexyl 2-(4-fluorophenyl) indole-3-acetamide]
nDAG(15:0/18:2) (Th17 cells, 10 µM): 0.0745
nDAG(16:0/16:0) (Th17 cells, 10 µM): 19.5066
nDAG(16:0/16:1) (Th17 cells, 10 µM): 3.679
nDAG(16:0/18:0) (Th17 cells, 10 µM): 17.7482
nDAG(16:0/18:1) (Th17 cells, 10 µM): 17.8834
nDAG(16:0/18:2) (Th17 cells, 10 µM): 1.3367
nDAG(16:0/18:3) (Th17 cells, 10 µM): 0.06918
nDAG(16:0/20:3) (Th17 cells, 10 µM): 2.168
nDAG(16:0/20:4) (Th17 cells, 10 µM): 0.4462
nDAG(16:0/20:5) (Th17 cells, 10 µM): 0.02527
nDAG(16:0/22:5) (Th17 cells, 10 µM): 0.2343
nDAG(16:0/22:6) (Th17 cells, 10 µM): 0.3639
nDAG(16:1/16:1) (Th17 cells, 10 µM): 0.2383
nDAG(16:1/18:0) (Th17 cells, 10 µM): 0.9172
nDAG(16:1/18:1) (Th17 cells, 10 µM): 1.986
nDAG(16:1/18:2) (Th17 cells, 10 µM): 0.2498
nDAG(16:1/18:3) (Th17 cells, 10 µM): 0.05893
nDAG(16:1/20:0) (Th17 cells, 10 µM): 0.281
nDAG(16:1/20:2) (Th17 cells, 10 µM): 0.05259
nDAG(16:1/20:4) (Th17 cells, 10 µM): 0.0501
nDAG(16:1/22:6) (Th17 cells, 10 µM): 0.1384
nDAG(18:0/18:1) (Th17 cells, 10 µM): 4.793
nDAG(18:0/18:2) (Th17 cells, 10 µM): 1.2841
nDAG(18:0/18:3) (Th17 cells, 10 µM): 0.04099
nDAG(18:0/22:6) (Th17 cells, 10 µM): 0.5166
nDAG(18:1/18:1) (Th17 cells, 10 µM): 5.728
nDAG(18:1/18:2) (Th17 cells, 10 µM): 1.367
nDAG(18:1/20:1) (Th17 cells, 10 µM): 0.6608
nDAG(18:1/20:2) (Th17 cells, 10 µM): 0.298
nDAG(18:1/20:3) (Th17 cells, 10 µM): 0.3254
nDAG(18:1/20:4) (Th17 cells, 10 µM): 0.3507
nDAG(18:1/20:5) (Th17 cells, 10 µM): 0.04364
nDAG(18:1/22:4) (Th17 cells, 10 µM): 0.1472
nDAG(18:1/22:5) (Th17 cells, 10 µM): 0.2687
nDAG(18:1/22:6) (Th17 cells, 10 µM): 0.3639
nDAG(18:2/18:3) (Th17 cells, 10 µM): 0.01794
nDAG(18:2/20:3) (Th17 cells, 10 µM): 0.05124
nDAG(18:2/20:4) (Th17 cells, 10 µM): 0.02818
nDAG(18:2/20:5) (Th17 cells, 10 µM): 0.009187
nDAG(18:2/22:4) (Th17 cells, 10 µM): 0.01566
nDAG(18:2/22:5) (Th17 cells, 10 µM): 0.004594
nDAG(18:2/22:6) (Th17 cells, 10 µM): 0.04424
nDAG(20:0/20:0) (Th17 cells, 10 µM): 0.1788
nDAG[FA12:0] (Th17 cells, 10 µM): 0.4433
nDAG[FA14:0] (Th17 cells, 10 µM): 7.546
nDAG[FA14:1] (Th17 cells, 10 µM): 0.2449
nDAG[FA15:0] (Th17 cells, 10 µM): 0.1819
nDAG[FA16:0] (Th17 cells, 10 µM): 46.2571
nDAG[FA16:1] (Th17 cells, 10 µM): 4.564
nDAG[FA18:0] (Th17 cells, 10 µM): 12.8033
nDAG[FA18:1] (Th17 cells, 10 µM): 21.7078
nDAG[FA18:2] (Th17 cells, 10 µM): 2.36
nDAG[FA18:3] (Th17 cells, 10 µM): 0.09864
nDAG[FA20:0] (Th17 cells, 10 µM): 0.4502
nDAG[FA20:1] (Th17 cells, 10 µM): 0.3304
nDAG[FA20:2] (Th17 cells, 10 µM): 0.1753
nDAG[FA20:3] (Th17 cells, 10 µM): 1.272
nDAG[FA20:4] (Th17 cells, 10 µM): 0.4517
nDAG[FA20:5] (Th17 cells, 10 µM): 0.03905
nDAG[FA22:4] (Th17 cells, 10 µM): 0.08141
nDAG[FA22:5] (Th17 cells, 10 µM): 0.2538
nDAG[FA22:6] (Th17 cells, 10 µM): 0.7392
nDCER (Th17 cells, 10 µM): 0.1046
nDCER(14:0) (Th17 cells, 10 µM): 1.585
nDCER(16:0) (Th17 cells, 10 µM): 30.1076
nDCER(18:0) (Th17 cells, 10 µM): 3.38
nDCER(18:1) (Th17 cells, 10 µM): 0.4226
nDCER(20:0) (Th17 cells, 10 µM): 4.543
nDCER(20:1) (Th17 cells, 10 µM): 0.06424
nDCER(22:0) (Th17 cells, 10 µM): 7.184
nDCER(22:1) (Th17 cells, 10 µM): 1.69
nDCER(24:0) (Th17 cells, 10 µM): 25.6706
nDCER(24:1) (Th17 cells, 10 µM): 24.1916
nDCER(26:0) (Th17 cells, 10 µM): 0.1056
nDCER(26:1) (Th17 cells, 10 µM): 1.0564
nDCER[FA14:0] (Th17 cells, 10 µM): 1.585
nDCER[FA16:0] (Th17 cells, 10 µM): 30.1076
nDCER[FA18:0] (Th17 cells, 10 µM): 3.38
nDCER[FA18:1] (Th17 cells, 10 µM): 0.4226
nDCER[FA20:0] (Th17 cells, 10 µM): 4.543
nDCER[FA20:1] (Th17 cells, 10 µM): 0.06424
nDCER[FA22:0] (Th17 cells, 10 µM): 7.184
nDCER[FA22:1] (Th17 cells, 10 µM): 1.69
nDCER[FA24:0] (Th17 cells, 10 µM): 25.6706
nDCER[FA24:1] (Th17 cells, 10 µM): 24.1916
nDCER[FA26:0] (Th17 cells, 10 µM): 0.1056
nDCER[FA26:1] (Th17 cells, 10 µM): 1.0564
nFFA (Th17 cells, 10 µM): 4.287
nFFA(12:0) (Th17 cells, 10 µM): 1.325
nFFA(14:0) (Th17 cells, 10 µM): 3.367
nFFA(14:1) (Th17 cells, 10 µM): 0.5145
nFFA(15:0) (Th17 cells, 10 µM): 1.588
nFFA(16:0) (Th17 cells, 10 µM): 33.0903
nFFA(16:1) (Th17 cells, 10 µM): 1.393
nFFA(17:0) (Th17 cells, 10 µM): 2.524
nFFA(18:0) (Th17 cells, 10 µM): 24.6299
nFFA(18:1) (Th17 cells, 10 µM): 8.8316
nFFA(18:2) (Th17 cells, 10 µM): 4.005
nFFA(18:3) (Th17 cells, 10 µM): 1.526
nFFA(18:4) (Th17 cells, 10 µM): 0.3971
phosphatidylethanolamine (PE) and phosphatidylcholine (PC) (not statistically significant): modestly increased
lipid metabolites with differential levels (of 1300 lipid metabolites, p < 0.05): 39.6%
